Experiments:
[1] = tested on: BALB/C mice
Description: Experimental Methods: Ten-twelve week old female BALB/C mice are used. Mice are fed ad libitum. Each experimental group is housed in a separate cage.
Three groups of 4 mice are each fed ad libitum as follows: 1) Inventive Warfarin composition, mixed in baits at 4% Warfarin activity, 2) Unencapsulated Warfarin, mixed in baits feed at 4% activity, 3) Bait containing a composition as in Example 3, containing no Warfarin or other bioactive. The feed intake and kill effect on the mice are monitored.

[2] = tested on: Rodents; conditions: cited from earlier work
[3] = Degradation of unprotected protein antigen (OVA) activity in simulated gastric juice; assay type: physicochemical; conditions: simulated gastric fluid, 0.08% pepsin, pH-2, 37° C.
Description: Western Blot: the compositions were lysed with RIPA buffer as described above, and a calculated amount equivalent to 12 μg of protein per sample was loaded on a 10% SDS-polyacrylamide gradient gel (SDS-PAGE, Bio-Rad, Hercules, Calif.). Proteins were transferred onto a PVDF membrane (Bio-Rad) and blocked for 1 h with 5% non-fat milk in PBS containing 0.5% Tween-20 (PBS-T). Blots were incubated with an appropriate primary antibody at 1:5000 dilutions for 1 h at room temperature. After washing with PBS-T (3×10 mL, 5 min. each), the membranes were incubated with an appropriate HRP-conjugated secondary antibody (EMD Millipore Corporation, Billerica, Mass., USA) at 1:5000 dilution for 1 h. After washing with PBS-T (3×10 mL, 5 min. each), chemiluminescent films were developed with an ECL substrate (Amsheram Biosciences).
To evaluate the loss of activity of a protein antigen following a typical gastric exposure, non-encapsulated OVA (10 mg) was incubated in 10 ml simulated gastric fluid containing 0.08% pepsin at pH-2 for 2 h at 37° C. on a shaker. Medium was withdrawn at 15 min, 30 min, 60 min and 120 min incubation times, and the amount of residual OVA was analyzed using Western Blot analysis as described above.

[4] = tested on: BALB/C mice; test: Oral administration of OVA composition to mice, immune response (ELISA IgG/IgA, ASC); assay type: in vivo; conditions: OVA solution subcutaneously (SC), 0 and 3 weeks, read at week 4, expected
Description: Ovalbumin is orally administered to mice to test the efficacy of the inventive compositions in inducing an immune response.
Ovalbumin composition: Ovalbumin (1 mg/g of ovalbumin, Sigma, St. Louis, Mo.,) is incorporated into the inventive composition as described in Example 5. Three groups of 4 mice each are inoculated as follows: 1) ovalbumin (OVA) in the composition, administered orally, 2) OVA solution, administered subcutaneously (SC), 3) antigen free composition administered orally. Mice are inoculated at 0 and 3 weeks. Each dose administers a total 100 mg of dry composition mixed with corn oil at a ratio of 1:2 w/w of dry composition/oil, coated onto feed pellets. At week 4 each mouse is euthanized and serum and spleen cells are harvested.
Immunological assays: Serum is assayed for IgG and IgA by ELISA. ELISA is performed using OVA absorbed to polystyrene plates. Samples are placed in wells in triplicate at a 1:25 dilution for serum. […] Optical density of each well is determined by placing the plate in a microtiter plate spectrophotometer and reading the plate at 490 nm. […]
The OVA specific IgG and IgA antibodies are quantified by determining the increase in optical density over time. […] No OVA specific IgG or IgA antibodies are expected to be detected in mice fed antigen free composition.

[5] = rodents ingesting baits containing Warfarin

Row | Molecule | kill effect on the mice ([1]; after 8 h from feeding, expected) | feed intake, less than groups 1 and 3 ([1]; baits at 4% Warfarin activity, ad libitum) | time to recovery ([2]; rodents after a sublethal amount of Warfarin) | time to become unconscious [2, 5] | time to obvious symptoms of poisoning [2, 5] | Remaining activity (%) ([3]; 15 min, relative to pre-exposure activity) | Remaining activity (%) ([3]; 30 min) | Remaining activity (%) ([3]; 60 min) | Remaining activity (%) ([3]; 120 min) | OVA specific serum IgA, IgG and ASC secreting cells [4]
1 | CC(=O)CC(c1ccccc1)c1c(O)c2ccccc2oc1=O (stereo not shown) [Warfarin] | all group 2 mice remain alive | over 25% | ≤ 8 h | 1 to 2 h | 15 to 30 min |  |  |  |  | 
2 | ovalbumin (protein, UniProt P01012 2-386, looked up, Ovalbumin, model vaccine / protein antigen, unprotected or as solution) Ovalbumin: GSIGAASMEFCFDVFKELKVHHANENIFYCPIAIMSALAMVYLGAKDSTRTQINKVVRFDKLPGFGDSIEAQCGTSVNVHSSLRDILNQITKPNDVYSFSLASRLYAEERYPILPEYLQCVKELYRGGLEPINFQTAADQARELINSWVESQTNGIIRNVLQPSSVDSQTAMVLVNAIVFKGLWEKAFKDEDTQAMPFRVTEQESKPVQMMYQIGLFRVASMASEKMKILELPFASGTMSMLVLLPDEVSGLEQLESIINFEKLTEWTSSNVMEERKIKVYLPRMKMEEKYNLTSVLMAMGITDVFSSSANLSGISSAESLKISQAVHAAHAEINEAGREVVGSAEAGVDAASVSEEFRADHPFLFCIKHIATNAVLFFGRCVSP |  |  |  |  |  | 61% | 55% | 38% | 2% | equally increased
